Test results reported in US20040266862A1, “Method of improving animal tissue quality by supplementing the animal diet with mixed tocotrienols” (priority 2003, published 2004).
Marks after values point to notes of the source that are not given here.

How the values were obtained:
Type in all cases: in vivo
cattle [1] = experiment: 2002-03 cattle feed test: raw ribeye steak subjective color; settings: 300 ppm in diet
Description: (§1) Applicants also assessed the effects of antioxidant supplementation on beef quality in an experiment in which ground beef and steaks from cattle fed one of four dietary treatments were compared. Forty steers (average weight 1082 lbs.) were blocked by weight (heavy or light) and assigned to eight outdoor group pens. Pens were randomly assigned within weight blocks to four dietary treatments (two pens per dietary treatment): control, 300 ppm gamma-tocopherol, 150 ppm MT or 300 ppm MT. As in the swine and poultry feed trials, the MT supplement was obtained commercially from Fuji Chemical Industries (U.S.A.) Inc. of Robbinsville, N.J., and contained 7.5% alpha-, 12.3% gamma- and 3.0% delta-tocotrienol for a total MT content of 22.8 wt %, as well as 7.2% alpha-tocopherol. The control diet was not supplemented with even the NRC (1996) recommended level of vitamin E (15 to 60 ppm).
(§2) The steers were fed rolled corn diets with added cottonseed hulls that contained little or no vitamin E. The corn grain used in this trial was more than two years old so that it would be largely depleted of vitamin E. The steers were gradually adapted to an 80% grain-based diet and fed the low vitamin E diet for over one month prior to the start of the dietary supplementation period. Steers then were fed their respective dietary treatments for 54 days, starting Dec. 18, 2002 and ending Feb. 10, 2003.
(§3) The dietary treatments were top-dressed onto the feed and mixed with the morning daily feed. The target level for feeding gamma-tocopherol was calculated to be 2 g per animal per day. Mineral oil was used as a carrier for the gamma-tocopherol. The two target amounts of mixed tocotrienols were equivalent to, or half of, the gamma tocopherol level. The MT compounds were diluted with cornmeal to supply the required amount of mixed tocotrienols.
(§4) On the day following delivery of the beef rib sections to Kansas State University, ribs were boned out, vacuum packaged, and held at approximately (2° C.) until thirteen days postmortem, at which time the ribs were faced at the 13th rib region. The ribs were cut into 2.54 cm thick ribeye steaks, one steak from each rib to be used for color appraisal under retail display conditions and one steak for sensory evaluation. The steaks for sensory evaluation were vacuum-packaged and frozen.
(§5) The ribeye steaks utilized for color evaluation were placed onto 17S foam trays with meat, fish, and poultry pads (Dri-Loc AC-50) and wrapped with polyvinyl chloride film. The packaged steaks were placed under simulated retail display at 34±3° F. under 1614 lux (150±5 foot candles) light intensity in open-top display cases. The cases were programmed to defrost twice daily at 12-hour intervals. Case temperature was monitored using temperature recorders. An eight-member trained panel assigned subjective color and discoloration scores on days 0, 1, 2, 3, 4, 5 and 7. Pre-storage color was evaluated on an eight point scale. Panelists evaluated post-13 day storage color using a five-point scale with 0.5 intervals. Minolta color measurements were taken on days 0 and 7 using a Hunter Lab MiniScan™ Spectrophotometer (1.25 inch diameter aperture).

cattle [2] = experiment: 2002-03 cattle feed test: raw ribeye steak Hunter Lab color evaluation
Description: as §1, §2, §3, §4, §5

swine = experiment: 2002 swine feed test: 21-day raw pork loin quality measurements; set-up: key to Hunter a: Hunter a; more positive = redder; key to Hunter b: Hunter b; more positive = more yellow; Hunter a* / Hunter b*: scale not given here; settings: for Chop purge, % / Cooking Loss, %: 21-day pork loin; for Hunter L / Hunter L* / Hunter a / Hunter a* / Hunter b / Hunter b* / Loin pH / Loin purge, %: 21-day raw pork loin; for Instron force, kg: force to pierce loin chop
Description: Applicants conducted a second swine feeding trial to further determine the effects on meat quality of supplementation of a swine diet with alpha-tocopherol (AT), gamma-tocopherol (GT) or mixed tocotrienols (MT). Seventy-two barrows (˜75 lbs.) were transported to the Pioneer Livestock Nutrition Center (PLNC) and randomly placed into individual pens with water and feed provided ad libitum. The pigs received a common diet for seven days. On the eighth day the pigs were weighed individually and a uniform group of sixty pigs with an average body weight of about 75 pounds was selected. The pigs were randomly assigned one of five dietary treatments with 12 pigs per treatment. The feeding trial was initiated on Mar. 12, 2002 and ended on Jun. 19, 2002.
The pigs were fed a corn-soybean meal diet formulated to provide adequate levels of all nutrients. In addition, one of five dietary treatments was assigned to each group: control, 300 ppm AT, 450 ppm GT, 150 ppm MT, and 300 ppm MT. To each diet a corn oil premix and a ground corn premix were added with the corn oil premix as a carrier for the supplemental tocopherols and the ground corn premix as the carrier for the MT. The MT supplement was obtained commercially from Fuji Chemical Industries (U.S.A.) Inc. of Robbinsville, N.J., and contained 7.5% alpha-, 12.3% gamma- and 3.0% delta-tocotrienol, as well as 7.2% alpha-tocopherol.
Approximately twenty-one days after slaughter the loins were removed from vacuum bags and weighed. The liquid that had accumulated in the bags during storage was measured to calculate 21-day purge. Loin pH was measured at three locations by carefully inserting a glass probe into the mid-point of the anterior, mid and posterior thirds of each loin. As expected, measurement location (blade, chop or shoulder) affected loin pH, Hunter L, L* and a* values.
The Hunter L, a and b values were measured with a Hunter laboratory system for color evaluation. Hunter L is a measurement of the lightness of an object, and may be thought of as the light reflectance from the surface of an object. Thus, a higher Hunter L value indicates a lighter color, and an L value of 100 would indicate prefect reflectance from the surface. (The white standard has an L value of 97.21.) An increasingly positive Hunter a value indicates a redder color, and an increasingly positive Hunter b value indicates a more yellow color.

cattle [3] = experiment: 2002-03 cattle feed test: sensory characteristics of cooked ribeye steaks; settings: freshly cooked ribeye steaks; scale of 1 to 8; 300 ppm in diet
Description: as §1, §2, §3, §4
The frozen ribeye steaks designated for sensory evaluation were thawed for >24 hours at 3-4° C. and cooked in a Blodgett oven set at 163° C. The steaks were turned at 40° C. and removed from the oven at 70° C. The cooked steaks were cut into 2.54 cm×1.25 cm×1.25 cm cubes. The cubes were placed in double boilers and held warm on burners set at 107° C. until serving. Each panelist received two cubes in random order with a maximum of eight samples per session. An eight-point scale with 0.5 increments was used to score sensory attributes, with 8 being most tender, flavorful, or juicy and 1 being the least tender, flavorful, or juicy.

Question: Which subjective color score (cattle [1]; Pre-storage, eight point scale (1.0 = Bleached red, 8.0 = Very dark red)) does the source give for `Cc1c(O)cc2c(c1C)O[C@](C)(CCC[C@H](C)CCC[C@H](C)CCCC(C)C)CC2` [GT, gamma-tocopherol] here?
Answer: 4.34

Question: And the subjective color score (cattle [1]; post-13 day storage, display Day 0, five-point scale (1.0 = Very bright cherry red, 5.0 = Very dark red/purple to brown))?
Answer: 2.19

Question: And the subjective color score (cattle [1]; post-13 day storage, display Day 1, five-point scale)?
Answer: 2.28

Question: What about the subjective color score (cattle [1]; post-13 day storage, display Day 2, five-point scale) of the same molecule?
Answer: 2.29

Question: And the subjective color score (cattle [1]; post-13 day storage, display Day 3, five-point scale)?
Answer: 2.61

Question: What about the subjective color score (cattle [1]; post-13 day storage, display Day 4, five-point scale) of the same molecule?
Answer: 2.80^b

Question: And the subjective color score (cattle [1]; post-13 day storage, display Day 5, five-point scale)?
Answer: 3.02^b

Question: What about the subjective color score (cattle [1]; post-13 day storage, display Day 7, five-point scale) of the same molecule?
Answer: 3.29^b

Question: And the “Pre-display pH” value (cattle [2]; 300 ppm in diet)?
Answer: 5.53

Question: And the “Hunter L” value (cattle [2]; display Day 0, 300 ppm in diet)?
Answer: 41.35

Question: And the Hunter a (cattle [2]; display Day 0, 300 ppm in diet)?
Answer: 32.82

Question: What about the Hunter b (cattle [2]; display Day 0, 300 ppm in diet) of the same molecule?
Answer: 25.33

Question: And the “Hunter L” value (cattle [2]; display Day 7, 300 ppm in diet)?
Answer: 40.03^b

Question: And the Hunter a (cattle [2]; display Day 7, 300 ppm in diet)?
Answer: 30.26^b

Question: What about the Hunter b (cattle [2]; display Day 7, 300 ppm in diet) of the same molecule?
Answer: 23.35^b

Question: What about the “Chop purge, %” value (swine; 450 ppm in diet) of the same molecule?
Answer: 2.40%

Question: What about the “Cooking Loss, %” value (swine; 450 ppm in diet) of the same molecule?
Answer: 20.27%

Question: And the “Hunter L” value (swine; 450 ppm in diet)?
Answer: 45.47

Question: What about the “Hunter L*” value (swine; 450 ppm in diet) of the same molecule?
Answer: 52.53

Question: And the Hunter a (swine; 450 ppm in diet)?
Answer: 6.00

Question: And the “Hunter a*” value (swine; 450 ppm in diet)?
Answer: 7.14

Question: What about the Hunter b (swine; 450 ppm in diet) of the same molecule?
Answer: 8.41

Question: And the “Hunter b*” value (swine; 450 ppm in diet)?
Answer: 15.61

Question: What about the “Loin pH” value (swine; 450 ppm in diet) of the same molecule?
Answer: 5.67

Question: What about the “Loin purge, %” value (swine; 450 ppm in diet) of the same molecule?
Answer: 1.16%

Question: And the “Instron force, kg” value (swine; 450 ppm in diet)?
Answer: 5.53^a kg

Question: What about the Flavor intensity (cattle [3]) of the same molecule?
Answer: 5.9

Question: What about the Juiciness (cattle [3]) of the same molecule?
Answer: 5.7

Question: What about the Off-flavor intensity (cattle [3]) of the same molecule?
Answer: 7.7

Question: And the Overall tenderness (cattle [3])?
Answer: 6.1^a

Question: What about the Warmed over flavor (cattle [3]) of the same molecule?
Answer: 8.0

Question: `Cc1c(C)c2c(c(C)c1O)CC[C@@](C)(CCC[C@H](C)CCC[C@H](C)CCCC(C)C)O2` [AT, alpha-tocopherol] was tested. Which “Chop purge, %” value (swine; 300 ppm in diet) did it give?
Answer: 1.97%

Question: And the “Cooking Loss, %” value (swine; 300 ppm in diet)?
Answer: 20.11%

Question: What about the “Hunter L” value (swine; 300 ppm in diet) of the same molecule?
Answer: 46.68

Question: What about the “Hunter L*” value (swine; 300 ppm in diet) of the same molecule?
Answer: 53.86

Question: And the Hunter a (swine; 300 ppm in diet)?
Answer: 5.71

Question: And the “Hunter a*” value (swine; 300 ppm in diet)?
Answer: 6.76

Question: What about the Hunter b (swine; 300 ppm in diet) of the same molecule?
Answer: 8.60

Question: And the “Hunter b*” value (swine; 300 ppm in diet)?
Answer: 15.77

Question: And the “Loin pH” value (swine; 300 ppm in diet)?
Answer: 5.66

Question: What about the “Loin purge, %” value (swine; 300 ppm in diet) of the same molecule?
Answer: 0.99%

Question: What about the “Instron force, kg” value (swine; 300 ppm in diet) of the same molecule?
Answer: 4.98^b kg
